26 compounds from patent US20090082350A1, “SOLUBLE EPOXIDE HYDROLASE INHIBITORS” (Arete Therapeutics, Inc., priority 2007, published 2009) can be followed below.

The test system of data set [1] is soluble epoxide hydrolase (sEH). The experiment in a line: Fluorescent assay for mouse and human soluble epoxide hydrolase (CMNPC substrate). The format is biochemical. The source says: Fluorescent Assay for Mouse and Human Soluble Epoxide Hydrolase
Recombinant mouse sEH (MsEH) and human sEH (HsEH) were produced in a baculovirus expression system as previously reported. Grant et al., J. Biol. Chem., 268:17628-17633 (1993); Beetham et al., Arch. Biochem. Biophys., 305:197-201 (1993). The expressed proteins were purified from cell lysate by affinity chromatography. Wixtrom et al., Anal. Biochem., 169:71-80 (1988). Protein concentration was quantified using the Pierce BCA assay using bovine serum albumin as the calibrating standard. The preparations were at least 97% pure as judged by SDS-PAGE and scanning densitometry. They contained no detectable esterase or glutathione transferase activity which can interfere with the assay. The assay was also evaluated with similar results in crude cell lysates or homogenate of tissues.
The IC50s for each inhibitor were according to the following procedure:
Cyano(2-methoxynaphthalen-6-yl)methyl (3-phenyloxiran-2-yl)methyl carbonate (CMNPC; Jones P. D. et. al.; Analytical Biochemistry 2005; 343: pp. 66-75)
Bis/Tris HCl 25 mM pH 7.0 containing 0.1 mg/mL of BSA (buffer A)
CMNPC at 0.25 mM in DMSO.
Mother solution of enzyme in buffer A (Mouse sEH at 6 μg/mL and Human sEH at […]).
Inhibitor dissolved in DMSO at the appropriate concentration.
In a black 96 well plate, fill all the wells with 150 μL of buffer A.
Add 2 μL of DMSO in well A2 and A3, and then add 2 μL of inhibitor solution in A1 and A4 through A12.
Add […] of buffer A in row A, then mix several time and transfer 150 L to row B. Repeat this operation up to row H. The 150 L removed from row H go to the trash.
Add […] of buffer A in column 1 and 2, then add […] of enzyme solution to column 3 to 12.
Incubate the plate for 5 minutes in the plate reader at 30° C.
During incubation prepare the working solution of substrate by mixing 3.68 mL of buffer A (4×0.920 mL) with 266 μL (2×133 μL) of substrate solution).
At t=0, add 30 L of working substrate solution with multi-channel pipette labeled “Briggs 303” and start the reading ([S]final: 5 μM).
Read with ex: 330 nm (20 nm) and em: 465 nm (20 nm) every 30 second for 10 minutes. The velocities are used to analyze and calculate the IC50s.

[2] abbreviates: inhibitor concentration 5000 nM.
The mark [3] stands for this setting: inhibitor concentration 50000 nM.

Regarding `COc1ccc(-c2cc(NC(=O)NC34CC5CC(CC(C5)C3)C4)[nH]n2)cc1` [Compound 1, 1-adamantan-1-yl-3-(3-(4-methoxyphenyl)-1H-pyrazol-5-yl)urea], the “% Inh” value in data set [1] (setting [2]) stood at 89%.

Regarding `O=C(Nc1ccc(Cl)cc1)Nc1cc(C(=O)N2CCOCC2)ccn1` [Compound 19, 1-(4-chlorophenyl)-3-(4-(morpholine-4-carbonyl)pyridin-2-yl)urea], the melting point is 189 to 192 °C. In data set [1] (inhibitor concentration 500 nM), the “% Inh” value is reported as 72%. The like results for `COc1ccc(-c2cc(NC(=O)Nc3ccc(C(F)(F)F)cc3)[nH]n2)cc1` [Compound 2, 1-(3-(4-methoxyphenyl)-1H-pyrazol-5-yl)-3-(4-(trifluoromethyl)phenyl)urea] were, in that order, 228 to 231 °C and 89%. Compound `COc1ccc(-c2nnc(NC(=O)NC34CC5CC(CC(C5)C3)C4)s2)cc1` [Compound 9, 1-adamantan-1-yl-3-(5-(4-methoxyphenyl)-1,3,4-thiadiazol-2-yl)urea] came in with a melting point of 324 to 328 °C. Besides, the “% Inh” value in data set [1] (setting [3]) was found to be 37%. With `CCOC(=O)c1nnc(NC(=O)NC23CC4CC(CC(C4)C2)C3)s1` [Compound 26, ethyl 5-(3-adamantylureido)-1,3,4-thiadiazole-2-carboxylate], the “% Inh” value in data set [1] (inhibitor concentration 50 nM) was 91%. Compound `COc1ccc(NC(=O)NC23CC4CC(CC(C4)C2)C3)cn1` [Compound 7, 1-adamantan-1-yl-3-(6-methoxypyridin-3-yl)urea] yielded a melting point of 205 to 211 °C. The “% Inh” value in data set [1] (inhibitor concentration 50 nM) was 64%. Compound `O=C(Nc1ccc(C(F)(F)F)cc1)Nc1ccc(C(=O)N2CCOCC2)cn1` [Compound 8, 1-(5-(morpholine-4-carbonyl)pyridin-2-yl)-3-(4-(trifluoromethyl)phenyl)urea] returned a melting point of 233 to 237 °C. Besides, in data set [1] (inhibitor concentration 500 nM), the “% Inh” value is recorded as 69%. Compound `O=C(Nc1ccc(C(F)(F)F)cc1)Nc1ccc(C(=O)N2CCOCC2)s1` [Compound 3, 1-(5-(morpholine-4-carbonyl)thiophen-2-yl)-3-(4-(trifluoromethyl)phenyl)urea] yielded a melting point of 250 to 253 °C. Moreover, the “% Inh” value in data set [1] (inhibitor concentration 50 nM) is reported as 98%. Compound `O=C(Nc1ccc(C(F)(F)F)cc1)Nc1cccc(C(=O)N2CCOCC2)n1` [Compound 12, 1-(6-(morpholine-4-carbonyl)pyridin-2-yl)-3-(4-(trifluoromethyl)phenyl)urea] returned a melting point of 208 to 210 °C. Also, in data set [1] (setting [3]), the “% Inh” value is reported as 96%. `O=C(Nc1ccc(C(F)(F)F)cc1)Nc1cc(C(=O)N2CCOCC2)cs1` [Compound 13, 1-(4-(morpholine-4-carbonyl)thiophen-2-yl)-3-(4-(trifluoromethyl)phenyl)urea] showed a melting point of 250 to 253 °C. Also, the “% Inh” value in data set [1] (inhibitor concentration 50 nM) was found to be 73%.

Compound `CC(=O)Nc1ccc(NC(=O)Nc2ccc(Cl)cc2)cn1` [Compound 6, N-(5-(3-(4-chlorophenyl)ureido)pyridin-2-yl)acetamide] returned a melting point of 269 to 271 °C. Besides, the “% Inh” value in data set [1] (inhibitor concentration 500 nM) was found to be 87%. Turning to `O=C(Nc1ccc(C(F)(F)F)cc1)Nc1cc(C(=O)N2CCOCC2)ccn1` [Compound 17, 1-(4-(morpholine-4-carbonyl)pyridin-2-yl)-3-(4-(trifluoromethyl)phenyl)urea], the melting point lay within 200 to 206 °C. Besides, the “% Inh” value in data set [1] (inhibitor concentration 500 nM) worked out at 91%. For the compound `O=C(Nc1cccc(C(F)(F)F)c1)Nc1cc(C(=O)N2CCOCC2)cs1` [Compound 14, 1-(4-(morpholine-4-carbonyl)thiophen-2-yl)-3-(3-(trifluoromethyl)phenyl)urea], the melting point is 210 to 215 °C. The “% Inh” value in data set [1] (setting [2]) worked out at 89%.

In turn, `CC(=O)Nc1ccc(NC(=O)NC23CC4CC(CC(C4)C2)C3)cn1` [Compound 4, N-(5-(3-adamantylureido)pyridin-2-yl)acetamide] showed a melting point of 252 to 254 °C. For the same compound, the “% Inh” value in data set [1] (inhibitor concentration 50 nM) was 77%. `O=C(Nc1ccc(Cl)cc1)Nc1cccc(C(=O)N2CCOCC2)n1` [Compound 18, 1-(4-chlorophenyl)-3-(6-(morpholine-4-carbonyl)pyridin-2-yl)urea]: the melting point is 205 to 208 °C. The “% Inh” value in data set [1] (setting [3]) is listed as 87%. The like results for `O=C(Nc1cccc(C(F)(F)F)c1)Nc1cccc(C(=O)N2CCOCC2)n1` [Compound 20, 1-(6-(morpholine-4-carbonyl)pyridin-2-yl)-3-(3-(trifluoromethyl)phenyl)urea] were, in that order, 175 to 179 °C and 96%. The compound `COc1ccc(-c2nnc(NC(=O)Nc3cccc(C(F)(F)F)c3)s2)cc1` [Compound 10, 1-(5-(4-methoxyphenyl)-1,3,4-thiadiazol-2-yl)-3-(3-(trifluoromethyl)phenyl)urea] came in with a melting point of 331 to 336 °C. The “% Inh” value in data set [1] (inhibitor concentration 12500 nM) turned out to be 39%.

With `O=C(Nc1ncc(C(=O)O)s1)NC12CC3CC(CC(C3)C1)C2` [Compound 25, 2-(3-adamantylureido)thiazole-5-carboxylic acid], the “% Inh” value in data set [1] (setting [3]) came to 81%.

In the case of `O=C(Nc1ccc(C(F)(F)F)cc1)Nc1ccc(Oc2ccccc2)nc1` [Compound 15, 1-(6-phenoxypyridin-3-yl)-3-(4-(trifluoromethyl)phenyl)urea], the “% Inh” value in data set [1] (inhibitor concentration 50 nM) is recorded as 90%. `COc1ccc(-c2cc(NC(=O)Nc3ccc(Cl)cc3)on2)cc1` [Compound 22, 1-(4-chlorophenyl)-3-(3-(4-methoxyphenyl)isoxazol-5-yl)urea] showed a melting point of 165 to 170 °C. The “% Inh” value in data set [1] (setting [2]) was found to be 92%.

As to `O=C(Nc1cncc(C(=O)N2CCOCC2)c1)Nc1cccc(C(F)(F)F)c1` [Compound 24, 1-(5-(morpholine-4-carbonyl)pyridin-3-yl)-3-(3-(trifluoromethyl)phenyl)urea], the melting point was in the range of 75 to 80 °C. The “% Inh” value in data set [1] (setting [2]) is listed as 60%. Compound `O=C(Nc1ccc(C(F)(F)F)cc1)Nc1cncc(C(=O)N2CCOCC2)c1` [Compound 23, 1-(5-(morpholine-4-carbonyl)pyridin-3-yl)-3-(4-(trifluoromethyl)phenyl)urea] yielded a melting point of 114 to 118 °C. In addition, in data set [1] (inhibitor concentration 500 nM), the “% Inh” value is reported as 75%. Compound `O=C(Nc1ccc(Oc2ccccc2)nc1)NC12CC3CC(CC(C3)C1)C2` [Compound 16, 1-adamantan-1-yl-3-(6-phenoxypyridin-3-yl)urea] showed a melting point of 185 to 188 °C. Moreover, the “% Inh” value in data set [1] (inhibitor concentration 50 nM) is 95%.

For `CCOC(=O)c1cnc(NC(=O)NC23CC4CC(CC(C4)C2)C3)s1` [Compound 21, ethyl 2-(3-adamantylureido)thiazole-5-carboxylate], the “% Inh” value in data set [1] (inhibitor concentration 500 nM) is 97%.

Compound `COc1ccc(-c2cc(NC(=O)Nc3cccc(C(F)(F)F)c3)[nH]n2)cc1` [Compound 5, 1-(3-(4-methoxyphenyl)-1H-pyrazol-5-yl)-3-(3-(trifluoromethyl)phenyl)urea] displayed a melting point of 189 to 194 °C. Further, the “% Inh” value in data set [1] (setting [2]) was 92%.

`O=C(Nc1ccc(Cl)cc1)Nc1ccc(C(=O)N2CCOCC2)s1` [Compound 11, 1-(4-chlorophenyl)-3-(5-(morpholine-4-carbonyl)thiophen-2-yl)urea] displayed a melting point of 242 to 245 °C. Also, the “% Inh” value in data set [1] (inhibitor concentration 50 nM) was found to be 76%.

By melting point is commonly meant the temperature of the solid-liquid transition.
